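96-well plates; 48 h exposure; 5 concentrations. Endpoints by linear interpolation between flanking doses. Not reached: highest tested concentration assigned. At the GI50, growth is halved.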 Calls of active or inactive are those of the source. No stated cut-off is given here; in the data, active = GI50 up to about 1.1 µM and inactive = higher. Square brackets hold non-standard residues; d marks the D form. Peptide text beside a SMILES is read from it. * marks the point of attachment. X26 = COC1=CC(=O)N(C(=O)[C@@H](O*)C(C)C)[C@H]1Cc1ccccc1; NMeV = CN[C@H](C(=O)O)C(C)C; Hexanoyl = CCCCCC(=O)*
Assays:
Test in all cases: DTP human tumour cell line panel, 48 h
OVCAR-8 = tested on: OVCAR-8
RXF 393 = tested on: RXF 393
MOLT-4 = tested on: MOLT-4
KM12 = tested on: KM12
HCT-116 = tested on: HCT-116
U-251 = tested on: U-251
OVCAR-5 = tested on: OVCAR-5
SK-MEL-2 = tested on: SK-MEL-2
Malme-3M = tested on: Malme-3M
NCI-H23 = tested on: NCI-H23
SK-OV-3 = tested on: SK-OV-3
IGROV-1 = tested on: IGROV-1
MDA-N = tested on: MDA-N
TK-10 = tested on: TK-10
CAKI-1 = tested on: CAKI-1
HOP-62 = tested on: HOP-62
MDA-MB-435 = tested on: MDA-MB-435
SW-620 = tested on: SW-620
SK-MEL-28 = tested on: SK-MEL-28
SR = tested on: SR

| Compound | GI50 (OVCAR-8) | GI50 (RXF 393) | GI50 (MOLT-4) | GI50 (KM12) | GI50 (HCT-116) | GI50 (U-251) | GI50 (OVCAR-5) | GI50 (SK-MEL-2) | GI50 (Malme-3M) | GI50 (NCI-H23) | GI50 (SK-OV-3) | GI50 (IGROV-1) | GI50 (MDA-N) | GI50 (TK-10) | GI50 (CAKI-1) | GI50 (HOP-62) | GI50 (MDA-MB-435) | GI50 (SW-620) | GI50 (SK-MEL-28) | GI50 (SR) |
| --- | --- | --- | --- | --- | --- | --- | --- | --- | --- | --- | --- | --- | --- | --- | --- | --- | --- | --- | --- | --- |
| O=C1C=CC(=O)c2c1ccc1c3ccccc3n(CCCCCCCCn3c4ccccc4c4ccc5c(c43)C(=O)C=CC5=O)c21 | > 100 µM (inactive) | > 100 µM (inactive) | 85.7 µM (inactive) | > 100 µM (inactive) | > 100 µM (inactive) | > 100 µM (inactive) | > 100 µM (inactive) | > 100 µM (inactive) | > 100 µM (inactive) | > 100 µM (inactive) | > 100 µM (inactive) | > 100 µM (inactive) | > 100 µM (inactive) | > 100 µM (inactive) | > 100 µM (inactive) | > 100 µM (inactive) | > 100 µM (inactive) | > 100 µM (inactive) | > 100 µM (inactive) | – |
| COc1cc2c(c(O)c1OC)C(=O)C(Cc1ccc(O)cc1)CO2 (stereo not given) | 38.2 µM (inactive) | 13 µM (inactive) | 35.2 µM (inactive) | 23.4 µM (inactive) | 25.3 µM (inactive) | 29.5 µM (inactive) | 48.3 µM (inactive) | 30.8 µM (inactive) | 19.9 µM (inactive) | 29 µM (inactive) | 18.4 µM (inactive) | 35.3 µM (inactive) | – | > 100 µM (inactive) | 23 µM (inactive) | 27.2 µM (inactive) | 2.36 µM (inactive) | 30.1 µM (inactive) | 46.8 µM (inactive) | 4.67 µM (inactive) |
| COC(=O)[C@@H]1[C@H](O)[C@H](C)[C@H](O)[C@H](C)/C=C\C=C(\C)C(=O)Nc2c(C)c(OC(C)=O)c3c(c2O)C(=O)C(C)=C2OCOC(=C23)/C(C)=C/[C@@H](O)[C@H](O)[C@@H](C)[C@H]1OC(C)=O | 43.8 µM (inactive) | > 100 µM (inactive) | 26.5 µM (inactive) | 95.3 µM (inactive) | 22.5 µM (inactive) | > 100 µM (inactive) | > 100 µM (inactive) | – | 34.6 µM (inactive) | > 100 µM (inactive) | – | 67.9 µM (inactive) | 22.2 µM (inactive) | – | – | > 100 µM (inactive) | – | 32.1 µM (inactive) | 55.6 µM (inactive) | 33 µM (inactive) |
| O=C(COc1ccc(OCC(=O)N2C(=O)CC/C2=N\c2ccc(Cl)cc2)cc1)N1C(=O)CS/C1=N\c1ccc(Cl)cc1 | 47.5 µM (inactive) | > 100 µM (inactive) | – | 75.2 µM (inactive) | 93.8 µM (inactive) | 29.5 µM (inactive) | > 100 µM (inactive) | > 100 µM (inactive) | 77.3 µM (inactive) | 42 µM (inactive) | > 100 µM (inactive) | 47.6 µM (inactive) | > 100 µM (inactive) | > 100 µM (inactive) | > 100 µM (inactive) | 73.1 µM (inactive) | > 100 µM (inactive) | > 100 µM (inactive) | > 100 µM (inactive) | – |
| Nc1ccccc1N/C=C\C(=O)C(Cl)(Cl)Cl | 29 µM (inactive) | 20.1 µM (inactive) | 11 µM (inactive) | 15.5 µM (inactive) | 16.2 µM (inactive) | 25.6 µM (inactive) | 20.1 µM (inactive) | 24.5 µM (inactive) | 33.2 µM (inactive) | 22.7 µM (inactive) | 25.2 µM (inactive) | 16.4 µM (inactive) | 16.6 µM (inactive) | 30.6 µM (inactive) | 19.6 µM (inactive) | 19.3 µM (inactive) | 14.8 µM (inactive) | 16.7 µM (inactive) | 17.5 µM (inactive) | – |
| Oc1ncnc2c1CCCN2 | > 100 µM (inactive) | > 100 µM (inactive) | > 100 µM (inactive) | > 100 µM (inactive) | > 100 µM (inactive) | > 100 µM (inactive) | > 100 µM (inactive) | > 100 µM (inactive) | > 100 µM (inactive) | > 100 µM (inactive) | > 100 µM (inactive) | > 100 µM (inactive) | – | > 100 µM (inactive) | > 100 µM (inactive) | > 100 µM (inactive) | – | > 100 µM (inactive) | > 100 µM (inactive) | > 100 µM (inactive) |
| CCCCCC(=O)N[C@H](C(=O)N[C@H](C(=O)N(C)[C@H](C(=O)N1CCC[C@H]1C(=O)N1CCC[C@H]1C(=O)O[C@H](C(=O)N1C(=O)C=C(OC)[C@@H]1Cc1ccccc1)C(C)C)C(C)C)C(C)C)C(C)C (Hexanoyl-VV[NMeV]PP-X26) | > 100 µM (inactive) | 23.2 µM (inactive) | 63 µM (inactive) | > 100 µM (inactive) | 48.2 µM (inactive) | 43.8 µM (inactive) | 93.5 µM (inactive) | 36.3 µM (inactive) | > 100 µM (inactive) | > 100 µM (inactive) | > 100 µM (inactive) | > 100 µM (inactive) | 33.8 µM (inactive) | > 100 µM (inactive) | > 100 µM (inactive) | > 100 µM (inactive) | 36.2 µM (inactive) | > 100 µM (inactive) | > 100 µM (inactive) | – |
| COc1ccc(-c2csc(Cc3nc4ccccc4c(=O)n3-c3ccc(Cl)cc3)n2)cc1 | 57.7 µM (inactive) | > 100 µM (inactive) | 20 µM (inactive) | 31 µM (inactive) | 19.8 µM (inactive) | 32.2 µM (inactive) | 23.9 µM (inactive) | 17.8 µM (inactive) | > 100 µM (inactive) | 28.8 µM (inactive) | > 100 µM (inactive) | 32.7 µM (inactive) | 22.7 µM (inactive) | > 100 µM (inactive) | > 100 µM (inactive) | > 100 µM (inactive) | 28.5 µM (inactive) | 58.3 µM (inactive) | 27 µM (inactive) | – |
| Cl/C(=C\C=N\c1ccc(I)cc1)c1ccc2ccccc2c1 | 17.4 µM (inactive) | 22.2 µM (inactive) | 5.13 µM (inactive) | 13.1 µM (inactive) | 16.1 µM (inactive) | 16.4 µM (inactive) | 34.6 µM (inactive) | 18.9 µM (inactive) | 20.6 µM (inactive) | 16 µM (inactive) | 22.5 µM (inactive) | 17.9 µM (inactive) | – | 16.4 µM (inactive) | 11.9 µM (inactive) | 17.7 µM (inactive) | 9.42 µM (inactive) | 19.1 µM (inactive) | 21.4 µM (inactive) | 3.91 µM (inactive) |
| OCC1OC(n2cnc3c(Cl)nc(Nc4ccc(Cl)c(Cl)c4)nc32)CC1O (stereo not given) | 10.3 µM (inactive) | 10.3 µM (inactive) | 5.02 µM (inactive) | 8.83 µM (inactive) | 11 µM (inactive) | 10.2 µM (inactive) | 13.8 µM (inactive) | 9.53 µM (inactive) | 12 µM (inactive) | 10.2 µM (inactive) | 13.6 µM (inactive) | 11.9 µM (inactive) | – | 8.36 µM (inactive) | 16.3 µM (inactive) | 10.5 µM (inactive) | 9.38 µM (inactive) | 11.9 µM (inactive) | – | – |
| O=C1C=C(c2c(-c3ccccc3)[nH]c3ccccc23)C(=O)N1c1ccccc1 | 4.46 µM (inactive) | 3.8 µM (inactive) | 25.2 µM (inactive) | – | 6.49 µM (inactive) | 13.5 µM (inactive) | 14.8 µM (inactive) | 12.5 µM (inactive) | 11.5 µM (inactive) | 10.7 µM (inactive) | 24.8 µM (inactive) | 14.5 µM (inactive) | 3.89 µM (inactive) | 12.7 µM (inactive) | 5.53 µM (inactive) | 0.135 µM (active) | 4.02 µM (inactive) | 5.12 µM (inactive) | 13.3 µM (inactive) | – |
| CC(CC=O)Nc1nn2c(=O)c3ccccc3nc2s1 (stereo not given) | > 100 µM (inactive) | > 100 µM (inactive) | > 100 µM (inactive) | > 100 µM (inactive) | > 100 µM (inactive) | > 100 µM (inactive) | > 100 µM (inactive) | > 100 µM (inactive) | > 100 µM (inactive) | > 100 µM (inactive) | > 100 µM (inactive) | > 100 µM (inactive) | – | > 100 µM (inactive) | > 100 µM (inactive) | > 100 µM (inactive) | > 100 µM (inactive) | > 100 µM (inactive) | > 100 µM (inactive) | > 100 µM (inactive) |
| CC1=NC2(C(=O)O)C3(C(=O)O)N=C(C)OC3(C(F)(F)F)C2(C(F)(F)F)O1 (stereo not given) | > 100 µM (inactive) | > 100 µM (inactive) | > 100 µM (inactive) | > 100 µM (inactive) | > 100 µM (inactive) | > 100 µM (inactive) | > 100 µM (inactive) | > 100 µM (inactive) | > 100 µM (inactive) | > 100 µM (inactive) | > 100 µM (inactive) | > 100 µM (inactive) | – | > 100 µM (inactive) | > 100 µM (inactive) | > 100 µM (inactive) | – | > 100 µM (inactive) | > 100 µM (inactive) | > 100 µM (inactive) |
| CC(C)CCC[C@@H](C)[C@H]1CCC2C3CC=C4C[C@@H](Oc5c6ccccc6nc6ccccc56)CCC4C3CCC21 (stereo not given in full) | > 50 µM (inactive) | > 50 µM (inactive) | – | > 50 µM (inactive) | > 50 µM (inactive) | > 50 µM (inactive) | > 50 µM (inactive) | > 50 µM (inactive) | > 50 µM (inactive) | > 50 µM (inactive) | > 50 µM (inactive) | > 50 µM (inactive) | > 50 µM (inactive) | > 50 µM (inactive) | > 50 µM (inactive) | > 50 µM (inactive) | > 50 µM (inactive) | > 50 µM (inactive) | > 50 µM (inactive) | – |

From ChEMBL document CHEMBL1201862, “PubChem BioAssay data set” (2004)
